Legend:
[1] = molecular target: falcipain (FP2) (Plasmodium falciparum, UniProt Q8I6U4); test: Enzymatic inhibition of recombinant falcipain (FP2), fluorogenic Z-Phe-Arg-AMC substrate; type: biochemical
Description: Inhibition of cysteine-proteases cruzain, rhodesain, cathepsin B (Tb CatB) and falcipain (FP2) was assessed by quantification of the resulting fluorescence emission of the proteolytic breakdown of synthetic compound Z-Phe-Arg-AMC (Bachem). Inhibitors Ia or Ib were used at concentrations ranging form 10 nM to 10.000 nM (from 500 nM to 10000 nM for Tb CatB); thus, serial dilutions in DMSO were prepared with the minimal concentration of inhibitor Ia or Ib used for calculations and at least 10 times higher than that of the enzyme. These experiments were performed by distributing inhibitor Ia or Ib in 96 wells, fluorescence was recorded on a Flex Station fluorimeter (Molecular Devices), 355 nm excitation and 460 nm emission at 25° C., distributing 100 μl of substrate using a multichannel pipette at a similar volume of the inhibitor enzyme preincubated at 25° C. for 5 minutes. In each series of experiments, the enzyme with DMSO and the enzyme in the presence of the known irreversible inhibitor K11777 (N methyl piperazine-Phe-HPhe-(CH═CHSO2 Ph)), Arris Pharmaceuticals Inc., South San Francisco, Calif.) were used as controls. […]

[2] = system: Trypanosoma brucei brucei (Tbb); test: Inhibition test on Trypanosoma brucei brucei by ATP-bioluminescence; type: cell-based; conditions: concentration not given
Description: Inhibition tests on Trypanosoma brucei brucei were performed by ATP-bioluminescence (Z. B. Mackey et al, Chem. Biol. Drug Des. 2006, 67, pp. 355-363).

[3] = molecular target: cathepsin B (Tb CatB) (Trypanosoma brucei, UniProt Q6R7Z5); test: Enzymatic inhibition of recombinant Tb CatB, fluorogenic Z-Phe-Arg-AMC substrate; type: biochemical; conditions: for % inhibition (DMSO) TbCat B: concentration not given; for activity against cathepsin B (in words): summary statement, said to indicate selectivity
Description: (§1) Inhibition of cysteine-proteases cruzain, rhodesain, cathepsin B (Tb CatB) and falcipain (FP2) was assessed by quantification of the resulting fluorescence emission of the proteolytic breakdown of synthetic compound Z-Phe-Arg-AMC (Bachem). Inhibitors Ia or Ib were used at concentrations ranging form 10 nM to 10.000 nM (from 500 nM to 10000 nM for Tb CatB); thus, serial dilutions in DMSO were prepared with the minimal concentration of inhibitor Ia or Ib used for calculations and at least 10 times higher than that of the enzyme. These experiments were performed by distributing inhibitor Ia or Ib in 96 wells, fluorescence was recorded on a Flex Station fluorimeter (Molecular Devices), 355 nm excitation and 460 nm emission at 25° C., distributing 100 μl of substrate using a multichannel pipette at a similar volume of the inhibitor enzyme preincubated at 25° C. for 5 minutes. In each series of experiments, the enzyme with DMSO and the enzyme in the presence of the known irreversible inhibitor K11777 (N methyl piperazine-Phe-HPhe-(CH═CHSO2 Ph)), Arris Pharmaceuticals Inc., South San Francisco, Calif.) were used as controls.
(§2) Enzyme inhibition data were similarly determined: recombinant cruzain at 4 nM with 5 μM of Z-Phe-Arg-AMC (Km=1 μM) in buffer A (100 mM of sodium acetate, pH 5.5 with 5 mM of DTT and 0.001% Triton-X 100 (Sigma)); recombinant rhodesain at 4 nM of enzyme and 5 μM Z-Phe-Arg-AMC (Km=1 μM) in buffer A; recombinant Tb CatB at 40 nM of enzyme and 5 μM of Z-Phe-Arg-AMC (Km=60 μM) in buffer A and recombinant FP2 at 4 nM with 5 μM of Z-Phe-Arg-AMC (Km=1 μM) in buffer A. IC50 values were determined by direct reading of the semi-log plot of reaction speed versus inhibitor concentration.

[4] = molecular target: rhodesain (Trypanosoma brucei rhodesiense, UniProt Q95PM0); test: Enzymatic inhibition of recombinant rhodesain, fluorogenic Z-Phe-Arg-AMC substrate; type: biochemical, T. Brucei; conditions: for % inhibition (DMSO) Rhodesain: concentration not given; for activity against rhodesain (in words): summary statement
Description: as §1, §2

[5] = molecular target: cruzain (Trypanosoma cruzi, UniProt P25779); test: biochemical; type: biochemical; conditions: for % inhibition (DMSO) Cruzain: concentration not given; for activity against cruzain (in words): summary statement
cruzain, sequence (P25779 123-467): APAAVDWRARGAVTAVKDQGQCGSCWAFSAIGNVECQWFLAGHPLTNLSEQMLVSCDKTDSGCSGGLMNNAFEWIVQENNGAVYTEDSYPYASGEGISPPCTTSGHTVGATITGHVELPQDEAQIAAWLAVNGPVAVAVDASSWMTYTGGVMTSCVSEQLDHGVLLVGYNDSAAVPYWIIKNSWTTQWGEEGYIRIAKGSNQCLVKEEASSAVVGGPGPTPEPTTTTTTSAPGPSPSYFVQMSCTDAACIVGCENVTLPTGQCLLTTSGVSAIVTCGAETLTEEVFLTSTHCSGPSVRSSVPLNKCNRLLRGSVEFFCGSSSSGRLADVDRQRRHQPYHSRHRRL

rhodesain, sequence (Q95PM0 entry or part of it): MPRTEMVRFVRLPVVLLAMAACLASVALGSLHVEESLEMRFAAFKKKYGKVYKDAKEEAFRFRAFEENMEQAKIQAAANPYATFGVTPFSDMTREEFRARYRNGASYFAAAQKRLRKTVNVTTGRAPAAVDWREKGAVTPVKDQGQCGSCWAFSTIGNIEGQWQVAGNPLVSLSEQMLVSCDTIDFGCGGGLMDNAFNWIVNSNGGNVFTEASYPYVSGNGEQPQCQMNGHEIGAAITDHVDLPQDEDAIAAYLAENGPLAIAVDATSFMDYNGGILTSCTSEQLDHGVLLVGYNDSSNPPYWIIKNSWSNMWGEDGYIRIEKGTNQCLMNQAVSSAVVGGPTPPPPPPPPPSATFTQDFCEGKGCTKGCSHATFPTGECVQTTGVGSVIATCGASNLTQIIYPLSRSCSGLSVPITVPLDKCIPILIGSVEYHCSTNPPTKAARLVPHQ
cathepsin B (Tb CatB), sequence (Q6R7Z5 entry or part of it): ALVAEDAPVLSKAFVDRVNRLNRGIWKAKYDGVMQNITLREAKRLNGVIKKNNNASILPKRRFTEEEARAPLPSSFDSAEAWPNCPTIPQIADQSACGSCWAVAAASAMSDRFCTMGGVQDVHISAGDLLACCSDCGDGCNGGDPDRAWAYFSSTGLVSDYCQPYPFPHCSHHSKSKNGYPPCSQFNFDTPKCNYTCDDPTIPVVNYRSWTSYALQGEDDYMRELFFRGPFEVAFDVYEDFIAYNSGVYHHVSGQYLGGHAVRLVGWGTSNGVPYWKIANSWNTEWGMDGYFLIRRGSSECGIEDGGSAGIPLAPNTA
falcipain (FP2), sequence (Q8I6U4 244-484): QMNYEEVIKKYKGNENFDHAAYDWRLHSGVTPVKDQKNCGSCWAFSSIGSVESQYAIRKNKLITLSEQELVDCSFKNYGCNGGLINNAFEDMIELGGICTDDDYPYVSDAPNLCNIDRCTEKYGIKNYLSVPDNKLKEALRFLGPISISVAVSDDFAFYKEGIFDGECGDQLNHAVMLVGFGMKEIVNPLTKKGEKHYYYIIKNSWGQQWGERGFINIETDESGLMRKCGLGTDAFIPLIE

Structure (SMILES)	IC50 [1] [nM]	% inhibition (DMSO) Tbb [2] [%]	IC50 [3] [nM]	% inhibition (DMSO) TbCat B [3] [%]	activity against cathepsin B (in words) [3]	IC50 [4] [nM]	% inhibition (DMSO) Rhodesain [4] [%]	activity against rhodesain (in words) [4]	IC50 [5] [nM]	% inhibition (DMSO) Cruzain [5] [%]	activity against cruzain (in words) [5]
CCOC(=O)[C@H]1O[C@@H]1C(=O)[C@H](CCc1ccccc1)NC(=O)[C@H](Cc1ccccc1)NC(=O)OCc1ccccc1 [Compound Ia.1, Ethyl (2S,3S)-3-[(2S)-2-((2S)-2-benzyloxycarbonylamino-3-phenylpropionylamino)-4-phenylbutyryl]oxirane-2-carboxylate]	71	42	> 1000	51	not against cathepsin B	3.5	98	very active	20	93	very active
CCOC(=O)[C@@H]1O[C@H]1C(=O)[C@H](CCc1ccccc1)NC(=O)[C@H](Cc1ccccc1)NC(=O)OCc1ccccc1 [Compound Ib.1, Ethyl (2R,3R)-3-[(2S)-2-((2S)-2-benzyloxycarbonylamino-3-phenylpropionylamino)-4-phenylbutyryl]oxirane-2-carboxylate]	44	−2	400	47	not against cathepsin B	30	80	very active	50	55	very active
